How the values were obtained:
pro-IL-1β = assay: Expression of pro-IL-1β in BMMs; type: cell-based, murine; conditions: cells treated with bafilomycin A1 or CA-074 Me
Method: To induce pro-IL-1β expression, cells were pretreated overnight with 100 ng/ml LPS (Sigma). Inflammasome was induced with […] nigericin (Sigma) for 1 h or with […] Alum (Thermoscientific) for 1 h or with […] silica crystals (MIN-U-SIL-15, US Silica) for 1 h or with […] Amyloid-b peptide (Ab; American Peptide Company) fibrils prepared as described (Moore et al, 2002). […] Starvation and other treatments (except for macrophage priming with LPS done in advance) were carried out concurrently (i.e., initiated at the same time).
For all conditions, cell-free supernatants were assayed by immunoblotting after TCA precipitation for mouse IL-1β p17 (R&D), caspase-1 p10 (Santa Cruz Biotechnology), HMGB1 (Abcam) and Cathepsin B (R&D) or by ELISA for mouse IL-1β (R&D), IL-18 (MBL), and HMGB1 (IBL). Immunofluorescence confocal microscopy was carried out using a Zeiss LSM 510 Meta microscope (laser wavelengths 488, 543, and 633 nm). Antibodies against endogenous proteins IL-1β (Abcam), Sec6 (Shu C Hsu, Rutgers University, NJ, USA), Cathepsin B (R&D), Rab8a (Abcam), GORASP1 (Novus), GORASP2 (ProteinTech Group), GM130 (BD), LC3 (MBL) and GFP (Abcam; for BMMs from GFP-LC3 knock-in transgenic mice) were used for indirect immunofluorescence analysis. […]

IL-1β = IL-1β secretion from LPS-pretreated BMMs (ELISA); type: cell-based, murine; conditions: nigericin, 100 nM bafilomycin A1, 1 h
Method: FIG. 1X3. induction of autophagy enhances IL-1β secretion. (A) Atg5fl/fl Cre^− and Atg^5fl/fl Cre^+ bone marrow-derived macrophages (BMMs), pretreated overnight with 100 ng/ml LPS, were stimulated for 1 h with the inflammasome agonist nigericin ([…]) with (Starvation; EBSS) or without (Full; full medium) autophagic induction. Cell culture supernatants were assayed for murine IL-1β by ELISA. Data represent mean values±s.d. (nX3); *Po0.05. (B) LPS-pretreated Atg5fl/fl Cre^− and Atg^5fl/fl Cre^+ BMMs were stimulated with […] nigericin for 1 h in OptiMEM and the release of active caspase-1 and IL-1β was determined by immunoblotting. (C) As in (A), assayed for IL-18. Data represent mean values±s.d. (nX3); *Po0.05. (D) LPS-pretreated BMMs were exposed to alum ([…]) for 1 h with or without autophagic induction by starvation. Secreted IL-1β was measured as in (A). Data represent mean values±s.d. (nX3); *Po0.05. (E) LPS-pretreated BMMs were exposed to silica ([…]) for 1 h with or without autophagic induction by starvation. Secreted IL-1β was measured as in (A). Data represent mean values±s.d. (nX3); *Po0.05. (F) BMMs were transfected with scramble (Scr) control siRNA or siRNAs against ASC and NLRP3. After 48 h following transfection, cells were treated overnight with LPS and subjected to nigericin ([…]) and starvation for 1 h. Data represent mean values±s.d. (nX3); *Po0.05. (G) Immunoblot analysis of ASC and NLRP3 knockdowns. (H) BMMs were transfected with scramble
FIG. 2X3 Autophagic pathway progression promotes secretion of inflammasome substrates. (A, B) LPS-pretreated BMMs were treated with […] nigericin (Nig) and 100 nM bafilomycin A1 (Baf) with (Starvation) or without (Full) autophagic induction for 1 h and secreted IL-1β (A) and IL-18 (B) were measured. Data represent mean values+s.d. (nX3); *Po0.05. (C) LPS-pretreated BMMs were treated with […] of silica and 100 nM bafilomycin A1 (Baf) with (Starvation) or without (Full) autophagic induction for 1 h and secreted IL-1β were measured. Data represent mean values±s.d. (nX3); *Po0.05. (D) Colocalization of cathepsin B with the basal autophagic machinery factor LC3 and IL-1b. Fluorescence; LC3 (green, Alexa488), IL-1β (red, Alexa568), and cathepsin B (blue, Alexa633). BMMs from GFP-LC3 knockin mice were treated with LPS and then analysed for immunofluorescence. (E) Colocalization line tracing analysis from images in (D). (F) LPS-pretreated BMMs were treated with […] nigericin and cathepsin B inhibitor CA-074 Me […] , with (Starvation) or without (Full) autophagic induction, for 1 h and secreted IL-1β was measured. […] (G) LPS-pretreated Atg^5fl/fl Cr^+ and Atg^5fl/fl Cre^− BMMs were stimulated with […] nigericin for 1 h in OptiMEM and release of cathepsin B was determined by immunoblotting. […]

For `CO/C1=C\C(C)=C\[C@@H](C)[C@@H](O)[C@@H](C)C/C(C)=C/C=C/[C@H](OC)[C@@H]([C@@H](C)[C@@H](O)[C@H](C)[C@@]2(O)C[C@@H](O)[C@H](C)[C@@H](C(C)C)O2)OC1=O` [bafilomycin A1], the “expression of pro-IL-1β” value (pro-IL-1β) was “No differences”, the IL-1β secretion (IL-1β; basal autophagy only (full medium)) was “no change” and the IL-1β secretion (IL-1β; starvation) was “decreased IL-1β secretion”.

— patent publication US9572820B2, “Methods of treating autophagy-associated disorders and related pharmaceutical compositions, diagnostics, screening techniques and kits” (priority 2011, dated 2017)
